Assay results as given in patent publication US12492373B2, “Production method for nerve tissue” (Racthera Co., Ltd., priority 2014, dated 2025).

Assays:
[1] = test system: human iPS cells (1231A3 strain); assay: Immunostaining of aggregate sections for retinal tissue markers Chx10, Rx; format: cell-based; conditions: day 20
Procedure: Here, as step 3, culturing was performed under the following condition 1 and condition 2: Under condition 1(+BMP), on day 6 after the start of suspension culturing, the medium was changed to a medium free of Y27632 and containing human recombinant BMP4 (manufactured by R&D) such that the final concentration of exogenous human recombinant BMP4 was 1.5 nM (55 ng/ml) (FIG. 6B, D). Under condition 2(−BMP), on day 6 after the start of suspension culturing, a half amount of the medium was changed to a medium free of Y27632 and free of a BMP signal transduction pathway activating substance, without adding exogenous human recombinant BMP4 (FIG. 6A, C).
The thus-prepared cell aggregates on day 23 after the start of suspension culturing, which were produced from the above iPS cells that underwent a preconditioning treatment in step 1 as a starting material were fixed with 4% para-formaldehyde to prepare frozen sections. These frozen sections were immunostained for Chx10 (anti-Chx10 antibody, Exalpha, sheep), which is one of the retinal tissue markers, or Rx (anti-Rx antibody, Takara, guinea pig), which is one of the retinal tissue markers. These immunostained sections were observed under an inverted fluorescence microscope.
Cell aggregate were prepared according to the method described in Example 8 under conditions in which human iPS cells using StemFit medium as a feeder-free medium were used as a starting material, TGFβR inhibiting substance (SB431542) or BMPR inhibiting substance (LDN193189) was used in step 1, Shh signal transduction pathway activating substance was used in step 2, and BMP signal transduction pathway activating substance was added or not added in step 3. Neural tissues were formed in all the aggregates formed under all these conditions on day 23 after the start of suspension culturing. The above cell aggregates were fixed with 4% para-formaldehyde to prepare frozen sections. These frozen sections were immunostained for Chx10 (anti-Chx10 antibody, Exalpha, sheep), which is one of the retinal tissue markers, or Rx (anti-Rx antibody, Takara, guinea pig), which is one of the retinal tissue markers. These immunostained sections were observed under an fluorescence microscope. […] Furthermore, it was found from the analysis of serial sections that, in a neural tissue having a high (not less than 95%) proportion of Chx10-positive cells, Rx is also strongly positive (FIG. 9B, D, F, H).
Cell aggregates were prepared according to the method described in Example 10 by using, as a starting material, human iPS cells using Essential 8 medium as a feeder-free culturing, under conditions that TGFβR inhibiting substance (SB431542) are used in step 1, a Shh signal transduction pathway activating substance are used in step 2, and a BMP signal transduction pathway activating substance are added or are not added in step 3. The cell aggregates on day 18 after the start of suspension culturing were each fixed with 4% para-formaldehyde to prepare frozen section. These frozen sections were immunostained for Chx10 (anti-Chx10 antibody, Exalpha, sheep), which is one of the retinal tissue markers, or Rx (anti-Rx antibody, Takara, guinea pig), which is one of the retinal tissue markers, and observed under a fluorescence microscope. […] Furthermore, it was found from the analysis of serial sections that, in a neural tissue having a high (not less than 95%) proportion of Chx10-positive cells, Rx is also strongly positive. […]
A Cell aggregate was formed on day 18 after the start of suspension culturing under every conditions, and a neural tissue was formed (FIG. 14, upper panel). The above cell aggregates on day 18 after the start of suspension culturing were each fixed with 4% para-formaldehyde to prepare frozen section. […]

[2] = test system: human iPS cells (1231A3 strain); assay: Neural tissue / neuroepithelium formation in cell aggregates, bright field observation; format: cell-based; conditions: day 20
Procedure: The above human iPS cells were treated with the cell dispersion solution by using TrypLE Select (Life Technologies), further dispersed into single cells by pipetting operation, and the above human iPS cells dispersed into single cells were suspended in 100 μl of a serum-free medium at 1.2×10^4 cells per well of a non-cell-adhesive 96-well culture plate ([…], manufactured by SUMITOMO BAKELITE), and subjected to suspension culturing at 37° C., 5% CO2. As the serum-free medium (gfCDM+KSR) therefor, a serum-free medium which is a 1:1 mixture of F-12 medium and IMDM medium supplemented with 10% KSR, 450 μM 1-monothioglycerol, 1× Chemically defined lipid concentrate was used. At the time of the start of suspension culturing (day 0 after the start of suspension culturing, start of step 2), Y27632 (final concentration 20 μM) was added to the above serum-free medium. By day 2 after the start of suspension culturing, cell aggregates were formed under both conditions with preconditioning and conditions without preconditioning (step 2 completed, step 3 start). On day 3 after the start of suspension culturing, a serum-free medium (50 μl) free of Y27632 was added. On day 6 or later after the start of suspension culturing, a half amount of the medium was changed to the above serum-free medium free of Y27632 once per 2-4 days. In the half-medium change operation, a half volume, namely 75 μl, of the medium in the culture vessel was discarded, the above fresh serum-free medium (75 μl) was added to make the total medium amount 150 μl. […]
At the time of the start of suspension culturing (day 0 after the start of suspension culturing, start of step 2), the cells were cultured under the following 2 conditions including condition 1 and condition 2. As condition 1(+SAG), at the time of the start of suspension culturing, Y27632 (final concentration 20 μM) and SAG (Shh signal transduction pathway activating substance, 300 nM) were added to the above serum-free medium. As condition 2(−SAG), at the time of the start of suspension culturing, Y27632 (final concentration 20 μM) was added to the above serum-free medium and SAG was not added. By day 2 after the start of suspension culturing, cell aggregates were formed (step 2 completed, step 3 start) under both conditions. On day 3 after the start of suspension culturing, a medium (50 μl) free of Y27632, SAG and containing human recombinant BMP4 (manufactured by R&D) was added such that the final concentration of exogenous human recombinant BMP4 was 1.5 nM (55 ng/ml). On day 6 after the start of suspension culturing, a half amount of the medium was changed with a serum-free medium free of Y27632, SAG and human recombinant BMP4. Thereafter, a half amount of the medium was changed, once every 2-4 days, with the above serum-free medium free of Y27632, SAG, and human recombinant BMP4.
The thus-prepared cells were subjected to bright field observation on day 18 after the start of suspension culturing under an inverted microscope (KEYENCE) (FIG. 15).
At the time of the start of suspension culturing (day 0 after the start of suspension culturing, start of step 2), the cells were cultured under the following 2 conditions including condition 1 and condition 2. As condition 1(+SAG), at the time of the start of suspension culturing, Y27632 (final concentration 20 μM) and SAG (Shh signal transduction pathway activating substance, final concentration 30 nM) were added to the above serum-free medium. As condition 2(−SAG), at the time of the start of suspension culturing, Y27632 (final concentration 20 μM) was added to the above serum-free medium and SAG was not added. By day 2 after the start of suspension culturing, cell aggregates were formed under both conditions (step 2 completed, step 3 start). […]

[3] = A83-01 0.5 μM 1 day in step 1, SAG 30 nM in step 2, BMP4 1.5 nM on day 3

Compound	proportion of Chx10-positive cells in the total cells [1, 3]	cell aggregate and neural tissue formation [2, 3]	cell aggregate and neural tissue formation ([2]; step 1 for 1 day: A83-01 0.5 μM alone or with SAG 300 nM, Purmorphamine 0.2 μM, or human recombinant Shh 50 ng/ml or 300 ng/ml, SAG 30 nM in step 2, BMP4 1.5 nM on day 3)	proportion of Chx10-positive cells in the total cells ([1]; A83-01 0.5 μM and SAG 300 nM in step 1, substance added in step 2 (SAG 30 nM, Purmorphamine 0.2 μM or human recombinant Shh 300 ng/ml), BMP4 1.5 nM on day 3)
Cc1cccc(-c2nn(C(=S)Nc3ccccc3)cc2-c2ccnc3ccccc23)n1 [A83-01, 3-(6-methyl-2-pyridinyl)-N-phenyl-4-(4-quinolinyl)-1H-pyrazole-1-carbothioamide]	about 20%	a neural tissue can be formed efficiently	a neural tissue can be produced efficiently	
c1ccc2c(Oc3nc(Nc4ccc(N5CCOCC5)cc4)c4ncn(C5CCCCC5)c4n3)cccc2c1 [Purmorphamine, 9-cyclohexyl-N-[4-(4-morpholinyl)phenyl]-2-(1-naphthalenyloxy)-9H-purin-6-amine]				about 90%
